Source: a melting point compilation (Tetko et al.; mined from patent text by program, amines drawn as free bases though some values may be those of a salt)

| SMILES | melting point [°C] |
| --- | --- |
| COc1ccc(Cc2oc3ccc(O)cc3c2C)cc1 | 128 to 131 |
| Cc1cc(-c2cc(N)n3nc(-c4ccco4)nc3c2)ccn1 | 100 to 101 |
| NC(=O)c1nc(-c2cccc(O)c2)nc2c1[nH]c(=O)n2CC1CCCCC1 | 368 to 370 |
| Cc1ccc(S(=O)(=O)N2[C@@H](C(=O)O)CC[C@H]2c2ccc(F)cc2)cc1 (racemic) | 166 |
| O=C1NC(=O)C(Nc2ccc3ccccc3c2)S1 (centres undefined) | 200 to 201 |
| Fc1ccc2c(c1)C(OCC1CC1)(C(F)F)c1cc(Cl)cnc1N2 (centres undefined) | 169 to 170 |
| COc1ccc(/C=C/C(=O)Nc2ccccc2C(=O)OCC(=O)NCC(C)(C)SN=O)cc1OC | 135 to 137 |
| COc1ccccc1C1CCNC(N)=N1 (centres undefined) | 189 to 191 |
| CCC(C)(C)N=C(NC#N)Nc1cc(Cl)cc(Cl)c1 | 151 to 153 |
| CCOC(=O)CC1(c2ccccc2OCC)C(=O)Nc2ccc(Cl)cc21 (centres undefined) | 181 |
| O=c1[nH]c2cc(Cl)ccc2c(=O)n1S(=O)(=O)c1cc(Cl)ccc1Cl | 254 to 256 |
| CCOC(=O)c1nccn1Cc1ccc(Cl)cc1N | 94 to 96 |
| COc1cc(C2C3=C(CNC3=O)Nc3cc4c(cc32)OCO4)cc(OC)c1OC (centres undefined) | 244 |
| COc1c(N)cc(Cl)c(OC)c1[N+](=O)[O-] | 68 |
| O=C1c2cccc(NCCc3ccccc3)c2C(=O)c2cccc(NCCc3ccccc3)c21 | 205 to 207 |
| COC(=O)[C@H]1C=C(c2ccc(Br)cc2)OC(=O)[C@H]1Cc1ccccc1 | 139 to 141 |
| N#Cc1ccc(C=Cc2ccc(N(CCO)CCO)cc2)cc1 | 197 |
| COC(=O)c1cc(O)c(O)c(S(=O)(=O)O)c1 | 116 |
| Cc1cc(O)c(O)cc1C | 71 to 72 |
| N#Cc1ccc(C(=O)NCc2ccc(N3CC(C(=O)O)OC3=O)cc2)cc1 (centres undefined) | 234 |
| CCCOc1ccc(S(=O)(=O)N2CCN(CC)C(C(=O)OCC)C2)cc1-c1nc2cc3nc[nH]c3cc2c(=O)[nH]1 (centres undefined) | 158 to 163 |
| COC(=O)N[C@@H](Cc1ccccc1)[C@H](O)CCl | 163 to 164 |
| COC(=O)c1cccc2c3nc4ccccc4[nH]c-3nc12 | 251 to 255 |
| O=C(OCC1CCC1)c1ncc2n1-c1cccc(Br)c1C(=O)N1CCC[C@@H]21 | 170 to 172 |
| COc1ccccc1N1CCN(CCCC2CCc3onc(-c4ccc(F)cc4)c3C2=O)CC1 (centres undefined) | 107 to 108 |

| SMILES | melting point [°C] |
| --- | --- |
| O=C1NCN=C(c2ccccc2)c2ccccc21 | 215 |
| CN(C)CCNc1ccc(-c2n[nH]c3ncccc23)cc1 | 165 to 167 |
| CCCCCc1c(C(C)=O)nc(C(C)C)c(CO)c1-c1ccc(F)cc1 | 69 to 70 |
| COP(=S)(OC)Oc1nsc(C)c1C#N | 52 |
| O=C(O)CCCOc1ccc2cc(-c3ccc4ccc(Cl)cc4n3)oc2c1 | 200 to 201 |
| O=C(NCCc1ccc(Cl)cc1)c1ncccc1O | 91 to 93 |
| CCOC(=O)c1cccc(C(=O)O)c1 | 131 to 132 |
| CNC(=O)c1cc2c(Oc3ccc(C(=O)N4CCOCC4)cc3)cncc2s1 | 173 to 175 |
| COc1ccnc(CSc2nc3cc(-n4ccnc4)c(F)cc3[nH]2)c1 | 86 to 87 |
| CCN(CCCc1coc2c(OC)cccc12)C1COc2c(F)ccc(C(N)=O)c2C1 (centres undefined) | 125 to 128 |
| CCCCCCCCCCCCCCCCSCC(CNS(=O)(=O)CCCI)n1nnc(C)n1 (centres undefined) | 50 to 51 |
| CCCCn1c(=O)n(CCC(C)(O)C#CCN(CCC)CCC)c(=O)c2c1ncn2CCC (centres undefined) | 101 |
| CCCc1c(O)ccc2c1CCCC2=O | 159 to 160 |
| CC(C#N)c1ccc(-c2nc3ccccc3o2)cc1 (centres undefined) | 116 to 117 |
| COc1cc(C)c2c(c1)OC(C)(C)CC2=O | 86 to 88 |
| CNC(=O)NN(CC(=O)OC)c1cccc(Cl)c1 | 121 to 122 |
| COc1ccc2c(c1)c(C=C1SC(=S)N(CC(=O)O)C1=O)c(C)n2C(=O)c1ccc(Cl)cc1 | 204 to 208 |
| COC1CCC(OC)C2=C1C=CC(O)(C(C)=O)C2 (single isomer, unassigned; (-)) | 130 to 132 |
| OC1COC(O)C(F)(F)C1O (centres undefined) | 146 to 148 |
| CC(C)C(NC(=O)c1ccc(C(=O)NCC(=O)O)cc1)C(=O)N1CCCC1C(=O)NC(C(=O)C(F)(F)F)C(C)C (mixture of isomers) | 99 to 103 |
| CCc1cc(-c2cccnc2)nn1-c1ccc(NC(=O)c2cc3ccccc3n2C)cc1 | 178 to 179 |
| CCOc1cc(COc2nn(-c3ccccc3)cc2C=O)ccc1OCc1nc(-c2ccco2)oc1C | 149 to 150 |
| CC(C)c1ccccc1SC1=C(O)CC(CCc2ccccc2)(c2ccccc2)OC1=O (centres undefined) | 66 to 67 |
| Cc1ccc(S(=O)(=O)N2[C@H](CCCC(=O)O)CC[C@@H]2c2ccc(F)cc2)cc1 (racemic) | 87 |
| CCSC1=CCC2C3CCC4=CC(=O)C=CC4(C)C3C(O)CC12C (centres undefined) | 216 to 218 |

| SMILES | melting point [°C] |
| --- | --- |
| CCC(=O)c1c(SC)sc(C#N)c1CC | 66 to 67 |
| CCOC(=O)COC1=C(C(=O)Nc2cc(Cl)cc(Cl)c2)SC2=NCCCN21 | 165 |
| O=C(O)c1cc2n(n1)CCC2 | 140 to 145 |
| CCc1nc2c(N)nc(C)c(C)c2n1CCOCCN1CCCS1(=O)=O | 157 to 159 |
| COC(=O)N(c1cc(C)ccc1C(=O)c1ccc(F)cc1)C(C)C | 92 to 94 |
| CCCn1cc(C(N)=O)c(N)n1 | 160 to 163 |
| Clc1cnn2c(-c3ccncc3)ccnc12 | 183 to 184 |
| Cc1oc(-c2ccccc2)nc1COc1ccc(Cc2nc(-c3ccccc3)c(CCC(=O)O)o2)cc1 | 142 to 143 |
| Cc1ncccc1C(N)=O | 160 to 163 |
| CCc1nnc(/C=C/c2cn(-c3ccccc3)nc2OCc2ccc(OCc3nc(-c4ccco4)oc3C)c(OC)c2)o1 | 183 to 184 |
| O=C1CC2(c3ccccc3)CCCC2C(=O)N1Cc1ccccc1 (centres undefined) | 77 to 79 |
| Cc1cc(C(=O)N2Cc3cccn3Cc3ccccc32)ccc1C1=CCCCC1C(C)(C)C (centres undefined) | 127 to 129 |
| CCC(C)(C)NC1=NS(=O)(=O)c2sc(Cl)cc2N1 | 359 to 360 |
| CC(/C=C/c1c(C)sc(C)c1C)=C(F)\C=C\C(C)=C\C(N)=O | 212 to 215 |
| COc1cc2c(N)nc(N3CCN(c4nc5ccccc5s4)CC3)nc2c(OC)c1OC | > 250 |
| [N-]=[N+]=NC1(O)CC(n2ccc(N)nc2=O)OC1CO (centres undefined) | 174 to 176 |
| CN(C(=O)c1ccc(Cl)c(Cl)c1)c1ccc(Cl)cc1CCC(=O)O | 159 to 160 |
| Cc1cc(N(C)Cc2ccc(-c3ccc(OC(F)(F)F)cc3)nc2)ccc1OCC(=O)O | 137 to 138 |
| O=c1[nH]c2ccccc2c2ccc3nc(Nc4c(Cl)cccc4Cl)[nH]c3c12 | > 300 |
| CC(C)NC(=O)C(=O)c1ccc(Cl)cc1 | 79 |
| Cn1cc(C(=O)Nc2ccccc2-c2cc(F)ccc2F)c(C(F)(F)F)n1 | 110 to 112 |
| Cc1ccc(-c2nc3ccc(CN4CCN(C)CC4)cc3[nH]2)cc1C#Cc1ccc(NC2CC2)nn1 | 145 to 146 |
| O=c1[nH]c2ccc(C3CCN(Cc4ccc(-c5ccccc5)cc4)CC3)cc2[nH]1 | > 260 |
| CC(C)(CO)NC(=O)NCCNCC(O)COc1ccc(O)cc1 (centres undefined) | 113 to 130 |
| COc1cccc(-c2nc3cc(C4=NNC(=O)SC4C)ccc3n2CC(C)C)c1 (centres undefined) | 100 to 105 |

| SMILES | melting point [°C] |
| --- | --- |
| CC(=O)Oc1ccc(-n2cc(C(=O)OC3CCc4ccccc43)c(=O)cc2-c2cc3ccccc3s2)cc1 (centres undefined) | 234 to 236 |
| COc1cc(C=O)c([N+](=O)[O-])cc1OCCCCCCOC(C)=O | 79.8 to 81.5 |
| CCOC(=O)c1cnc2c(-c3cccc(Cl)c3)cnn2c1 | 136 |
| CC(C)NCCCC(O)c1ccccc1-c1ccccc1 (centres undefined) | 78 to 80 |
| COc1cc(Cc2cnc(NCCSCc3cc(CN(C)C)ccn3)[nH]c2=O)ccn1 | 65 to 74 |
| O=C(O)CCc1cn(Cc2ccc(OCc3ccncc3)cc2)cc1-c1ccccc1 | 124 to 125 |
| CCCCS(=O)(=O)NC1Cc2ccc(C3=NNC(=O)CC3(C)C)cc2C1 (centres undefined) | 159 to 161 |
| CC(C)(C)c1cc(C(=O)c2nccs2)cc2c1OCC2(C)C | 101 to 103 |
| CNN1c2cc(Cl)cc(Cl)c2[C@@H](C(=O)Nc2ccccc2)C[C@@H]1C(=O)O (relative stereo) | 139 to 140 |
| CC(C)(C)c1nc(N)n(-c2c(Cl)cc(C(F)(F)F)cc2Cl)n1 | 208 to 212 |
| CCOC(Nc1ccccc1)(OCC)c1ccnc(C(=O)c2ccc(C)cc2)c1 | 95 to 96 |
| CC(C)(Cc1ccc(OCCCC(=O)O)cc1)NCC(O)c1cc(O)cc2c1OCC(=O)N2 (centres undefined) | 201 to 204 |
| CSc1nc2ncccc2c2nnc(SCc3ccccc3)n12 | 157 to 158 |
| O=C(NC(CO)CO)c1cccc(-c2ccc3c(c2)C(c2ccc(Cl)cc2Cl)CC3)c1 (centres undefined) | 135 to 157 |
| COC(=O)c1cc([N+](=O)[O-])cc(-c2ccc(NC(=O)OC(C)(C)C)cc2)c1C | 131 to 132 |
| CCN(CC)CC1CCCCN1CC(C)(C)NC(=O)N1c2ccccc2C(=O)Nc2cccnc21 (centres undefined) | 160 to 162 |
| COc1cc(C(=O)C(Br)CCC2CCCCC2)c(OC)cc1C (centres undefined) | 75 to 77 |
| Cc1nnc2ccc(-c3ccc(N)c(C(F)(F)F)c3)nn12 | 240 to 242 |
| COC(=O)c1ccc(C(=O)NC2CCC(NC(=O)c3ccc(C(=O)OC)cc3)CC2)cc1 (centres undefined) | > 350 |
| CN(C=O)c1ccccc1C(=O)COS(C)(=O)=O | 67 to 69 |
| O=C(CNc1ccc(F)cc1)Nc1c(Cl)ccc2nc(N3CC[C@@H](O)C3)ccc12 | 242 to 246 |
| CCN(CC)CCNC(=O)c1c(I)ccc2c(=O)c3ccccc3[nH]c12 | 215 to 217 |
| Cc1c(C)c2c(c(C)c1NC(=O)C(C)C)CC(C)(C)O2 | 136 to 138 |
| COc1cc(F)c(-c2cncc(OC3SCC(OC(C)=O)C(OC(C)=O)C3OC(C)=O)c2)c(F)c1 (centres undefined) | 62 |
